In ChEMBL document CHEMBL3784933, “Synthesis and antitumor evaluation of trimethoxyanilides based on 4(3H)-quinazolinone scaffolds” (2016):

Assays:
Type in all cases: functional
[1] = Cytotoxicity against human OVCAR3 cells assessed as growth inhibition at 10 uM after 48 hrs by SRB assay; conditions: OVCAR-3, 48 h, read-out: GI
Malme-3M = experiment: Cytotoxicity against human MALME-3M cells assessed as growth inhibition at 10 uM after 48 hrs by SRB assay; conditions: read-out: GI
SK-MEL-5 = experiment: Cytotoxicity against human SK-MEL-5 cells assessed as growth inhibition at 10 uM after 48 hrs by SRB assay; conditions: SK-MEL-5, 48 h, read-out: GI
SN12C = experiment: Cytotoxicity against human SN12C cells assessed as growth inhibition at 10 uM after 48 hrs by SRB assay; conditions: read-out: GI
[2] = Cytotoxicity against human SF539 cells assessed as growth inhibition at 10 uM after 48 hrs by SRB assay; conditions: SF-539, 48 h, read-out: GI
M14 = experiment: Cytotoxicity against human M14 cells assessed as growth inhibition at 10 uM after 48 hrs by SRB assay; conditions: M14, 48 h, read-out: GI
[3] = Cytotoxicity against human PC3 cells assessed as growth inhibition at 10 uM after 48 hrs by SRB assay; conditions: PC-3, 48 h, read-out: GI
CCRF-CEM = experiment: Cytotoxicity against human CCRF-CEM cells assessed as growth inhibition at 10 uM after 48 hrs by SRB assay; conditions: read-out: GI
SK-MEL-2 = experiment: Cytotoxicity against human SK-MEL-2 cells assessed as growth inhibition at 10 uM after 48 hrs by SRB assay; conditions: SK-MEL-2, 48 h, read-out: GI
[4] = Cytotoxicity against human SNB19 cells assessed as growth inhibition at 10 uM after 48 hrs by SRB assay; conditions: SNB-19, 48 h, read-out: GI
[5] = Cytotoxicity against human BT549 cells assessed as growth inhibition at 10 uM after 48 hrs by SRB assay; conditions: BT-549, 48 h, read-out: GI
A498 = experiment: Cytotoxicity against human A498 cells assessed as growth inhibition at 10 uM after 48 hrs by SRB assay; conditions: A498, 48 h, read-out: GI
[6] = Cytotoxicity against human SNB75 cells assessed as growth inhibition at 10 uM after 48 hrs by SRB assay; conditions: SNB-75, 48 h, read-out: GI
A549 = experiment: Cytotoxicity against human A549 cells assessed as growth inhibition at 10 uM after 48 hrs by SRB assay; conditions: A549, 48 h, read-out: GI
[7] = Cytotoxicity against human OVCAR8 cells assessed as growth inhibition at 10 uM after 48 hrs by SRB assay; conditions: OVCAR-8, 48 h, read-out: GI
[8] = Cytotoxicity against human NCI-ADR-RES cells assessed as growth inhibition at 10 uM after 48 hrs by SRB assay; conditions: read-out: GI
[9] = Cytotoxicity against human SKOV3 cells assessed as growth inhibition at 10 uM after 48 hrs by SRB assay; conditions: SK-OV-3, 48 h, read-out: GI
[10] = Cytotoxicity against human Hs 578T cells assessed as growth inhibition at 10 uM after 48 hrs by SRB assay; conditions: read-out: GI
NCI-H522 = experiment: Cytotoxicity against human NCI-H522 cells assessed as growth inhibition at 10 uM after 48 hrs by SRB assay; conditions: NCI-H522, 48 h, read-out: GI
[11] = Cytotoxicity against human HOP92 cells assessed as growth inhibition at 10 uM after 48 hrs by SRB assay; conditions: HOP-92, 48 h, read-out: GI
[12] = Cytotoxicity against human SF295 cells assessed as growth inhibition at 10 uM after 48 hrs by SRB assay; conditions: SF-295, 48 h, read-out: GI
MDA-MB-231 = experiment: Cytotoxicity against human MDA-MB-231 cells assessed as growth inhibition at 10 uM after 48 hrs by SRB assay; conditions: MDA-MB-231, 48 h, read-out: GI
[13] = Cytotoxicity against human UACC62 cells assessed as growth inhibition at 10 uM after 48 hrs by SRB assay; conditions: UACC-62, 48 h, read-out: GI
T47D = experiment: Cytotoxicity against human T47D cells assessed as growth inhibition at 10 uM after 48 hrs by SRB assay; conditions: read-out: GI
[14] = Cytotoxicity against human SF268 cells assessed as growth inhibition at 10 uM after 48 hrs by SRB assay; conditions: SF-268, 48 h, read-out: GI
[15] = Cytotoxicity against human UACC257 cells assessed as growth inhibition at 10 uM after 48 hrs by SRB assay; conditions: UACC-257, 48 h, read-out: GI
U-251 = experiment: Cytotoxicity against human U251 cells assessed as growth inhibition at 10 uM after 48 hrs by SRB assay; conditions: U-251, 48 h, read-out: GI
[16] = Cytotoxicity against human UO31 cells assessed as growth inhibition at 10 uM after 48 hrs by SRB assay; conditions: UO-31, 48 h, read-out: GI

COc1cc2nc(SCC(=O)Nc3cc(OC)c(OC)c(OC)c3)n(-c3ccccc3)c(=O)c2cc1OC
inhibition of growth at 10 µM [1]: 12%
inhibition of growth at 10 µM (Malme-3M): 20%
inhibition of growth at 10 µM (SK-MEL-5): 10%
inhibition of growth at 10 µM (SN12C): 11%
inhibition of growth at 10 µM [2]: 17%
inhibition of growth at 10 µM (M14): 15%
inhibition of growth at 10 µM [3]: 17%
inhibition of growth at 10 µM (CCRF-CEM): 18%
inhibition of growth at 10 µM (SK-MEL-2): 22%
inhibition of growth at 10 µM [4]: 17%
inhibition of growth at 10 µM [5]: 13%
inhibition of growth at 10 µM (A498): 28%
inhibition of growth at 10 µM [6]: 20%
inhibition of growth at 10 µM (A549): 14%
inhibition of growth at 10 µM [7]: 40%
inhibition of growth at 10 µM [8]: 10%
inhibition of growth at 10 µM [9]: 12%
inhibition of growth at 10 µM [10]: 34%
inhibition of growth at 10 µM (NCI-H522): 52%
inhibition of growth at 10 µM [11]: 32%
inhibition of growth at 10 µM [12]: 11%
inhibition of growth at 10 µM (MDA-MB-231): 16%
inhibition of growth at 10 µM [13]: 19%
inhibition of growth at 10 µM (T47D): 15%
inhibition of growth at 10 µM [14]: 19%
inhibition of growth at 10 µM [15]: 26%
inhibition of growth at 10 µM (U-251): 30%
inhibition of growth at 10 µM [16]: 34%
